Test results reported in US12636290B2, “BET inhibitors for modulating DUX4 expression in FSHD” (Saint Louis University, priority 2018, dated 2026).
Where two headings read alike, the source gives them in different places.

Test system: DUX4 expression (surrogate marker MBD3L2)
Assay: Screening: qPCR analysis of DUX4 target gene MBD3L2 in differentiating MB200 FSHD2 muscle cells
Format: cell-based
Settings: Homo sapiens, 40 hours, DUX4 expression inferred from surrogate marker MBD3L2 expression (qPCR, normalized to RPL30)
Procedure: Cells and Cell Culture. Primary human myoblast cell lines, immortalized by retroviral transduction of cyclin-dependent kinase 4 (CDK4) and human telomerase reverse transcriptase (hTERT) (Stadler, et al., 2011), were obtained from the Fields Center at the University of Rochester (world-wide-web at urmc.rochester.edu/fields-center.aspx). Immortalized myoblasts were grown in Ham's F-10 Nutrient Mix (Gibco, Waltham, MA, USA) supplemented with 20% HyClone Fetal Bovine Serum (GE Healthcare Life Sciences, Pittsburgh, PA, USA), 100 U/100 μg penicillin/streptomycin (Gibco), 10 ng/ml recombinant human fibroblast growth factor (Promega Corporation, Madison, WI, USA) and 1 μM dexamethasone (Sigma-Aldrich). Differentiation of myoblasts into myotubes was achieved by switching the fully confluent myoblast monolayer into Dulbecco's Modified Eagle Medium (DMEM) (Gibco) containing 1% horse serum (Gibco), 100 U/100 μg penicillin/streptomycin, 10 μg/ml insulin (Sigma-Aldrich) and 10 μg/ml transferrin (Sigma-Aldrich) (HS/IT media) or DMEM:F12 Nutrient Mixture (1:1, Gibco) supplemented with 2% KnockOut Serum Replacement (Gibco), 100 U/100 μg penicillin/streptomycin, 10 μg/ml insulin and 10 μg/ml transferrin (KSR media) for 2-6 days.
Screening: qPCR analysis of DUX4 target genes MBD3L2. For screening compounds, differentiating MB200 FSHD2 muscle cells were exposed to BET inhibitors at a variety of concentrations for 40 hours to determine the effects of the drugs on DUX4 expression. Cell lysates were prepared using Cells-to-Ct Bulk Lysis Reagents (Invitrogen, Waltham, MA, USA). Gene expression was measured by quantitative polymerase chain reaction (qPCR) was carried out on a QuantStudio 5 (Applied Biosystems, Waltham, MA, USA) using TaqMan Gene Expression Assays (Applied Biosystems) and TaqMan Fast Virus 1-Step Master Mix (Invitrogen). The relative expression levels of DUX4 target gene methyl-CpG binding domain protein 3 like 2 (MBD3L2), was normalized to that of the reference gene ribosomal protein L30 (RPL30), which was included in multiplex (two gene) PCR reactions. TaqMan Gene Expression Assay ID numbers: MBD3L2, Hs00544743_m1; RPL30, Hs00265497_m1. Data is expressed as relative expression with the expression in absence of inhibitors set to one.
Analysis of MBD3L2 expression in cultured FSHD2 cells. DUX4 mRNA is present in very low levels, even in differentiating FSHD2 myoblasts, so DUX4 target gene MBD3L2 was used as a surrogate marker of DUX4 expression. FSHD2 patient derived muscle cells were analyzed to determine whether BET inhibitors affect MBD3L2 expression, indicating a reduction in DUX4 expression.

| SMILES | IC50 (read-out: DUX4* MT FSHD2: IC50) | IC50 (read-out: DUX4* MT FSHD2 IC50) |
| --- | --- | --- |
| Cn1cc(-c2ccc(N3CCC(c4ccc(OCCN5CCCCC5)cc4)CC3)nc2)c2cc[nH]c2c1=O [SLU-2116, 6-methyl-4-{6-[4-(4-(2-(piperidin-1-yl)ethoxy)phenyl)piperidin-1-yl]pyridin-3-yl}-1H-pyrrolo[2,3-c]pyridin-7(6H)-one] | 270 nM | 270 nM |
| CCN1CCN(CCOc2ccc(-c3ccc4cc(-c5cn(C)c(=O)c6[nH]ccc56)ccc4n3)cc2)[C@H](C)C1=O [SLU-2611, (R)-4-{2-[4-(2-(4-ethyl-2-methyl-3-oxopiperazin-1-yl)ethoxy)phenyl]quinolin-6-yl}-6-methyl-1H-pyrrolo[2,3-c]pyridin-7(6H)-one] | 41 nM | 41 nM |
| COc1ccc(C2CCN(c3ccc(-c4cn(C)c(=O)c5[nH]ccc45)cn3)CC2)cc1 [SLU-2108, 4-{6-[4-(4-methoxyphenyl)piperidin-1-yl]pyridin-3-yl}-6-methyl-1H-pyrrolo[2,3-c]pyridin-7(6H)-one] | 280 nM | 280 nM |
| CC(=O)N1C[C@@H](C)N(CCOc2ccc(-c3ccc4cc(-c5cn(C)c(=O)c6[nH]ccc56)ccc4n3)cc2)[C@@H](C)C1 [SLU-2107, 4-{2-[4-(2-((2R,6S)-4-acetyl-2,6-dimethylpiperazin-1-yl)ethoxy)phenyl]quinolin-6-yl}-6-methyl-1H-pyrrolo[2,3-c]pyridin-7(6H)-one] | 48 nM | 48 nM |
| C[C@@H]1C(=O)N(C)CCN1CCOc1ccc(C2CCN(c3ncc(-c4cn(C)c(=O)c5[nH]ccc45)cn3)CC2)cc1 [SLU-2091, (R)-4-{2-[4-(4-(2-(2,4-dimethyl-3-oxopiperazin-1-yl)ethoxy)phenyl)piperidin-1-yl]pyrimidin-5-yl}-6-methyl-1H-pyrrolo[2,3-c]pyridin-7(6H)-one] | 20 nM | 20 nM |
| C[C@@H]1C(=O)N(C)CCN1CCCOc1ccc(-c2ccc3cc(-c4cn(C)c(=O)c5[nH]ccc45)ccc3n2)cc1 [SLU-2299, (R)-4-{2-[4-(3-(2,4-dimethyl-3-oxopiperazin-1-yl)propoxy)phenyl]quinolin-6-yl}-6-methyl-1H-pyrrolo[2,3-c]pyridin-7(6H)-one] | 3.4 nM | 3.4 nM |
| Cn1cc(-c2ccc3nc(-c4ccc(OCCN5CCNC(=O)C5)cc4)ccc3c2)c2cc[nH]c2c1=O [SLU-2242, 6-methyl-4-{2-[4-(2-(3-oxopiperazin-1-yl)ethoxy)phenyl]quinolin-6-yl}-1H-pyrrolo[2,3-c]pyridin-7(6H)-one] | 93 nM | 93 nM |
| C[C@@H]1C(=O)N(C)CCN1CCOc1ccc(-c2cc3ccc(-c4cn(C)c(=O)c5[nH]ccc45)cc3cn2)cc1 [SLU-2217, (R)-4-{3-[4-(2-(2,4-dimethyl-3-oxopiperazin-1-yl)ethoxy)phenyl]isoquinolin-7-yl}-6-methyl-1H-pyrrolo[2,3-c]pyridin-7(6H)-one] | 22 nM | 22 nM |
| C[C@@H]1C(=O)N(C)CCN1CCOc1ccc(-c2ccc3nc(-c4cn(C)c(=O)c5[nH]ccc45)ccc3c2)cc1 [SLU-2112, (R)-4-{6-[4-(2-(2,4-dimethyl-3-oxopiperazin-1-yl)ethoxy)phenyl]quinolin-2-yl}-6-methyl-1H-pyrrolo[2,3-c]pyridin-7(6H)-one] | 40 nM | 40 nM |
| C[C@@H]1C(=O)N(C)CCN1CCOCC(=O)N1CCC2(CC1)CCN(c1ccc(-c3cn(C)c(=O)c4[nH]ccc34)cn1)CC2 [SLU-2225, (R)-4-{6-[9-(2-(2-(2,4-dimethyl-3-oxopiperazin-1-yl)ethoxy)acetyl)-3,9-diazaspiro[5.5]undecan-3-yl]pyridin-3-yl}-6-methyl-1H-pyrrolo[2,3-c]pyridin-7(6H)-one] | 35 nM | 35 nM |
| C[C@@H]1C(=O)N(C)CCN1CCOc1ccc(-c2ccc(-c3cn(C)c(=O)c4[nH]ccc34)cc2)cc1 [SLU-2097, (R)-4-{4′-[2-(2,4-dimethyl-3-oxopiperazin-1-yl)ethoxy]-[1,1′-biphenyl]-4-yl}-6-methyl-1H-pyrrolo[2,3-c]pyridin-7(6H)-one] | 120 nM | 120 nM |
| C[C@@H]1C(=O)N(C)CCCN1CCOc1ccc(-c2ccc3cc(-c4cn(C)c(=O)c5[nH]ccc45)ccc3n2)cc1 [SLU-2284, (R)-4-{2-[4-(2-(2,4-dimethyl-3-oxo-1,4-diazepan-1-yl)ethoxy)phenyl]quinolin-6-yl}-6-methyl-1H-pyrrolo[2,3-c]pyridin-7(6H)-one] | 90 nM | 90 nM |
| C[C@H]1CN(C)C(=O)CN1CCOc1ccc(-c2ccc3cc(-c4cn(C)c(=O)c5[nH]ccc45)ccc3n2)cc1 [SLU-2287, (S)-4-{2-[4-(2-(2,4-dimethyl-5-oxopiperazin-1-yl)ethoxy)phenyl]quinolin-6-yl}-6-methyl-1,6-dihydro-7H-pyrrolo[2,3-c]pyridin-7-one] | 108 nM | 108 nM |
| CN1CCN(CCOc2ccc(-c3ccc4cc(-c5cn(C)c(=O)c6[nH]ccc56)ccc4n3)cc2)CCC1=O [SLU-2277, 6-methyl-4-{2-[4-(2-(4-methyl-5-oxo-1,4-diazepan-1-yl)ethoxy)phenyl]quinolin-6-yl}-1,6-dihydro-7H-pyrrolo[2,3-c]pyridin-7-one] | 20 nM | 20 nM |
| Cn1cc(-c2ccc3cc(-c4ccc(OCCN5CCOCC5)cc4)ccc3n2)c2cc[nH]c2c1=O [SLU-2278, 6-methyl-4-{6-[4-(2-morpholinoethoxy)phenyl]quinolin-2-yl}-1,6-dihydro-7H-pyrrolo[2,3-c]pyridin-7-one] | 120 nM | 120 nM |
| C[C@H]1C(=O)N(C)CCN1CCOc1ccc(-c2ccc3cc(-c4cn(C)c(=O)c5[nH]ccc45)ccc3n2)cc1 [SLU-2236, (S)-4-{2-[4-(2-(2,4-dimethyl-3-oxopiperazin-1-yl)ethoxy)phenyl]quinolin-6-yl}-6-methyl-1H-pyrrolo[2,3-c]pyridin-7(6H)-one] | 13 nM | 13 nM |
| Cn1cc(-c2ccc(N3CCC(c4ccc(OCCN5CCOCC5)cc4)CC3)nc2)c2cc[nH]c2c1=O [SLU-2118, 6-methyl-4-{6-[4-(4-(2-morpholinoethoxy)phenyl)piperidin-1-yl]pyridin-3-yl}-1H-pyrrolo[2,3-c]pyridin-7(6H)-one] | 261 nM | 261 nM |
| C[C@@H]1C(=O)N(C)CCN1CCOc1ccc(C#Cc2ccc(-c3cn(C)c(=O)c4[nH]ccc34)cc2)cc1 [SLU-2226, (R)-4-{4-[(4-(2-(2,4-dimethyl-3-oxopiperazin-1-yl)ethoxy)phenyl)ethynyl]phenyl}-6-methyl-1H-pyrrolo[2,3-c]pyridin-7(6H)-one] | 47 nM | 47 nM |
| CC(=O)N1C[C@@H](C)N(CCOc2ccc(-c3ccc(-c4cn(C)c(=O)c5[nH]ccc45)cc3)cc2)[C@@H](C)C1 [SLU-2096, 4-{4′-[2-((2R,6S)-4-acetyl-2,6-dimethylpiperazin-1-yl)ethoxy]-[1,1′-biphenyl]-4-yl}-6-methyl-1H-pyrrolo[2,3-c]pyridin-7(6H)-one] | 180 nM | 180 nM |
| C[C@@H]1C(=O)N(C)CCN1CCOc1ccc(-c2ccc3nc(-c4cn(C)c(=O)c5[nH]ccc45)ccc3c2)nc1 [SLU-2213] | 41 nM | 41 nM |
| CCn1cc(-c2ccc3nc(-c4ccc(OCCN5CCN(C)C(=O)[C@H]5C)cc4)ccc3c2)c2cc[nH]c2c1=O [SLU-2296, (R)-4-{2-[4-(2-(2,4-dimethyl-3-oxopiperazin-1-yl)ethoxy)phenyl]quinolin-6-yl}-6-ethyl-1H-pyrrolo[2,3-c]pyridin-7(6H)-one] | 58 nM | 58 nM |
| CC(=O)N1C[C@@H](C)N(CCOc2ccc(-c3ccc4nc(-c5cn(C)c(=O)c6[nH]ccc56)ccc4c3)cc2)[C@@H](C)C1 [SLU-2104, 4-{6-[4-(2-((2R,6S)-4-acetyl-2,6-dimethylpiperazin-1-yl)ethoxy)phenyl]quinolin-2-yl}-6-methyl-1H-pyrrolo[2,3-c]pyridin-7(6H)-one] | 43 nM | 43 nM |
| C[C@@H]1CCC[C@H](C)N1CCOc1ccc(-c2ccc3cc(-c4cn(C)c(=O)c5[nH]ccc45)ccc3n2)cc1 [SLU-2233, 4-{2-[4-(2-((2R,6S)-2,6-dimethylpiperidin-1-yl)ethoxy)phenyl]quinolin-6-yl}-6-methyl-1H-pyrrolo[2,3-c]pyridin-7(6H)-one] | 290 nM | 290 nM |
